In patent publication US20240368163A1, “COMPOUNDS AND METHODS FOR MODULATING SPLICING” (REMIX THERAPEUTICS INC., priority 2021, published 2024):
Where two headings read alike, the source gives them in different places.

What was measured:
Format in all cases: cell-based, human
HTT [1] = test: Splicing RT-qPCR assay, HTT mRNA canonical junction (CJ) and alternative junction (AJ); details: RT-qPCR panel, canonical junction mRNA, compound concentration having 50% response in CJ decrease, read-out: HTT IC50 (decrease in CJ mRNA levels)
In short: (§1)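 Splice switching is measured in A673 or K562 cells after 24 h compound exposure (maximum 10 uM, 3-fold steps). Canonical and alternative junction mRNA levels are quantified by RT-qPCR relative to housekeeper and DMSO.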

MYB [2] = test: Splicing RT-qPCR assay, MYB mRNA canonical junction (CJ) and alternative junction (AJ); details: RT-qPCR panel, canonical junction mRNA, compound concentration having 50% response in CJ decrease, read-out: MYB IC50 (decrease in CJ mRNA levels)
In short: as §1

SMN2 = test: Splicing RT-qPCR panel, SMN2 canonical junction (CJ) mRNA; details: RT-qPCR panel, canonical junction mRNA, compound concentration having 50% response in CJ decrease, read-out: SMN2 IC50 (decrease in CJ mRNA levels)
In short: as §1

Target C [3] = test: Splicing RT-qPCR panel, Target C canonical junction (CJ) mRNA; details: RT-qPCR panel, canonical junction mRNA, compound concentration having 50% response in CJ decrease, read-out: Target C IC50 (decrease in CJ mRNA levels)
In short: as §1

MYB [4] = test: HiBiT protein abundance assay, MYB; details: Table 13A, modified K562 cells
In short: (§2)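 K562 cells with endogenous HiBiT-tagged target were treated 24 h at 37 °C with compound (10-point 3-fold dilution, top 10 μM final, DMSO ≤0.25%). Lytic LgBiT luminescence was normalized to unmodified K562 (baseline) and DMSO-treated tagged cells; IC50 interpolated at 50% from four-parameter logistic fit.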

HTT [5] = test: HiBiT protein abundance assay, HTT; details: Table 13A, modified K562 cells
In short: as §2

Target C [6] = test: HiBiT protein abundance assay, Target C; details: Table 13A, modified K562 cells
In short: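 HiBiT knock-in K562-derived cells, 10000 cells/well, were treated 24 h at 37 °C with a 10-point 3-fold dilution series (top 10 μM final, DMSO ≤0.25%). Lytic HiBiT luminescence was normalized to unmodified K562 and DMSO controls; IC50 was interpolated at 50% from a four-parameter logistic fit.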

Row | Compound | IC50 (HTT [1]; Homo sapiens) [nM] | IC50 (MYB [2]; Homo sapiens) [nM] | IC50 (SMN2; Homo sapiens) [nM] | IC50 (Target C [3]; Homo sapiens) [nM] | IC50 (MYB [4]; Homo sapiens, K562, 24 h) [nM] | IC50 (HTT [5]; Homo sapiens, K562, 24 h) [nM] | IC50 (Target C [6]; Homo sapiens, K562, 24 h) [nM] | IC50 (HTT [1]) [nM] | IC50 (MYB [2]) [nM] | IC50 (SMN2) [nM] | IC50 (Target C [3]) [nM] | IC50 (MYB [4]; 24 hours) [nM] | IC50 (HTT [5]; 24 hours) [nM] | IC50 (Target C [6]; 24 hours) [nM]
1 | c1nc2c(-c3cn[nH]c3)ccc(-c3cnc(N4CCN[C@H](C5CC5)C4)nn3)c2s1 [Compound 451] | 1000 to 10000 | 1000 to 10000 | 1000 to 10000 | 1000 to 10000 | 1000 to 10000 | 1000 to 10000 | 1000 to 10000 | – | – | – | – | – | – | –
2 | c1cnn(-c2ccc(-c3cnc(N4CCC(NC5CC5)C4)nn3)c3cn[nH]c23)c1 (stereo not drawn) [Compound 484, N-cyclopropyl-1-[6-(7-pyrazol-1-yl-1H-indazol-4-yl)-1,2,4-triazin-3-yl]pyrrolidin-3-amine] | 1000 to 10000 | > 10000 | 1000 to 10000 | > 10000 | > 10000 | 1000 to 10000 | 1000 to 10000 | – | – | – | – | – | – | –
3 | CNC1CCN(c2ncc(-c3ccc(-n4cccn4)c4[nH]ncc34)nn2)C1 (stereo not drawn) [Compound 485, N-methyl-1-[6-(7-pyrazol-1-yl-1H-indazol-4-yl)-1,2,4-triazin-3-yl]pyrrolidin-3-amine] | 1000 to 10000 | 1000 to 10000 | 1000 to 10000 | > 10000 | 1000 to 10000 | 1000 to 10000 | 1000 to 10000 | – | – | – | – | – | – | –
4 | c1cnn(-c2ccc(-c3cnc(N4CCNC(C5CC5)C4)nn3)c3cn[nH]c23)c1 (stereo not drawn) [Compound 511] | < 100 | 1000 to 10000 | 100 to 1000 | 100 to 1000 | 1000 to 10000 | 100 to 1000 | 100 to 1000 | – | – | – | – | – | – | –
5 | c1cnn(-c2ccc(-c3cnc(N4CCC(NC5CC5)C4)nn3)c3cn[nH]c23)c1 (stereo not drawn) [Compound 548] | – | – | – | – | – | – | – | 1000 to 10000 | > 10000 | 1000 to 10000 | > 10000 | > 10000 | 1000 to 10000 | 1000 to 10000
6 | CNC1CCN(c2ncc(-c3ccc(-n4cccn4)c4[nH]ncc34)nn2)C1 (stereo not drawn) [Compound 549] | – | – | – | – | – | – | – | 1000 to 10000 | 1000 to 10000 | 1000 to 10000 | > 10000 | 1000 to 10000 | 1000 to 10000 | 1000 to 10000
7 | c1nc2c(-c3cn[nH]c3)ccc(-c3cnc(N4CCN[C@@H](C5CC5)C4)nn3)c2s1 [Compound 552] | 100 to 1000 | 1000 to 10000 | 100 to 1000 | 1000 to 10000 | 1000 to 10000 | 100 to 1000 | 100 to 1000 | – | – | – | – | – | – | –
8 | CC1(C)CC(Oc2ccc(-c3ccc(-n4cccn4)c4[nH]ncc34)nn2)CC(C)(C)N1 [Compound 554] | 100 to 1000 | 100 to 1000 | 100 to 1000 | 1000 to 10000 | 100 to 1000 | 100 to 1000 | 100 to 1000 | – | – | – | – | – | – | –
9 | CC1(C)CC(Nc2ccc(-c3ccc(-n4cccn4)c4[nH]ncc34)nn2)CC(C)(C)N1 [Compound 558] | 100 to 1000 | 100 to 1000 | < 100 | 100 to 1000 | 100 to 1000 | < 100 | < 100 | – | – | – | – | – | – | –
10 | CN(c1ccc(-c2ccc(-n3cccn3)c3[nH]ncc23)nn1)C1CC(C)(C)NC(C)(C)C1 [Compound 559] | 100 to 1000 | 1000 to 10000 | 100 to 1000 | 1000 to 10000 | 100 to 1000 | 100 to 1000 | 100 to 1000 | – | – | – | – | – | – | –
11 | c1cnn(-c2ccc(-c3ccc(N4CCNC(C5CC5)C4)nn3)c3cn[nH]c23)c1 (stereo not drawn) [Compound 560] | 100 to 1000 | 1000 to 10000 | 100 to 1000 | 1000 to 10000 | 1000 to 10000 | 100 to 1000 | 100 to 1000 | – | – | – | – | – | – | –
12 | C[C@@H]1CN(c2ncc(-c3ccc(-c4cn[nH]c4)c4ncsc34)nn2)C[C@H](C)N1 [Compound 562] | > 10000 | > 10000 | 1000 to 10000 | > 10000 | 1000 to 10000 | 1000 to 10000 | 1000 to 10000 | – | – | – | – | – | – | –
13 | CC1(C)CN(c2ncc(-c3ccc(-c4cn[nH]c4)c4ncsc34)nn2)CC(C)(C)N1 [Compound 563] | 1000 to 10000 | 1000 to 10000 | 1000 to 10000 | > 10000 | 1000 to 10000 | 1000 to 10000 | 1000 to 10000 | – | – | – | – | – | – | –
14 | CN1CCN(c2ncc(-c3ccc(-c4cn[nH]c4)c4ncsc34)nn2)CC1C1CC1 (stereo not drawn) [Compound 564] | 100 to 1000 | 1000 to 10000 | 100 to 1000 | 1000 to 10000 | 1000 to 10000 | 100 to 1000 | 100 to 1000 | – | – | – | – | – | – | –
15 | c1nc2c(-c3cn[nH]c3)ccc(-c3cnc(N4CCN5CCCC5C4)nn3)c2s1 (stereo not drawn) [Compound 565] | 1000 to 10000 | 1000 to 10000 | 1000 to 10000 | > 10000 | 1000 to 10000 | 1000 to 10000 | 1000 to 10000 | – | – | – | – | – | – | –
16 | c1nc2c(-c3cn[nH]c3)ccc(-c3cnc(N4CCN5CCCCC5C4)nn3)c2s1 (stereo not drawn) [Compound 566] | 100 to 1000 | 1000 to 10000 | 1000 to 10000 | 1000 to 10000 | 1000 to 10000 | 100 to 1000 | 1000 to 10000 | – | – | – | – | – | – | –
17 | CN(c1ncc(-c2ccc(-c3cn[nH]c3)c3ncsc23)nn1)C1CC(C)(C)NC(C)(C)C1 [Compound 567] | 100 to 1000 | 1000 to 10000 | 100 to 1000 | 100 to 1000 | 1000 to 10000 | 100 to 1000 | 100 to 1000 | – | – | – | – | – | – | –
18 | C[C@H]1CN(c2ncc(-c3ccc(-c4cn[nH]c4)c4ncsc34)nn2)C[C@@H](C2CC2)N1 [Compound 568] | 100 to 1000 | > 10000 | 1000 to 10000 | 1000 to 10000 | 1000 to 10000 | 100 to 1000 | 1000 to 10000 | – | – | – | – | – | – | –
19 | CC(C)(C)NC1CCN(c2ncc(-c3ccc(-c4cn[nH]c4)c4ncsc34)nn2)C1 (stereo not drawn) [Compound 569] | 100 to 1000 | 1000 to 10000 | 1000 to 10000 | 1000 to 10000 | 1000 to 10000 | 100 to 1000 | 1000 to 10000 | – | – | – | – | – | – | –
20 | CC(C)(C)C1CN(c2ncc(-c3ccc(-c4cn[nH]c4)c4ncsc34)nn2)CCN1 (stereo not drawn) [Compound 570] | 100 to 1000 | 100 to 1000 | 100 to 1000 | 100 to 1000 | 1000 to 10000 | 100 to 1000 | 100 to 1000 | – | – | – | – | – | – | –
21 | C[C@@H]1CN(c2ncc(-c3ccc(-n4cccn4)c4[nH]ncc34)nn2)C[C@H](C)N1 [Compound 571] | 1000 to 10000 | 1000 to 10000 | 1000 to 10000 | 1000 to 10000 | 1000 to 10000 | 100 to 1000 | 1000 to 10000 | – | – | – | – | – | – | –
